Structures can show the parent of a compound that is named as a salt.

Experiment [1] concerns Male Syrian hamsters known to develop insulin resistance and glucose intolerance. Briefly: Glucose tolerance test (GTT) after 2 weeks of bromocriptine, with or without Exendin-4 at the GTT. The class given is in vivo, Syrian hamster. Particulars: bromocriptine mesylate 4 mg/kg IP for 2 weeks, vehicle at GTT; 3 g/kg glucose; P<0.09.
For experiment [2] the test system is unchanged. Description: Glucose tolerance test (GTT), similarly designed experiment with insulin as first phase insulin secretagogue. In kind it is in vivo, Syrian hamster. Here is the method: Male Syrian hamsters known to develop insulin resistance and glucose intolerance were purchased at 4 weeks of age and kept on rodent diet for 10 weeks at 72 degrees F. and a 14 hr:10 hr daily light:dark cycle. When animals were 14 weeks of age on this daily photoperiod (known to be insulin resistant and glucose intolerant under these conditions), bromocriptine mesylate was administered intraperitoneally (IP) for 2 weeks at 4 mg/kg per hamster 13 hours after light onset to half of the animals, while the other half received vehicle injections for 2 weeks.
After 2 weeks of treatment both Bromocriptine and vehicle groups were divided into two groups for a total of 4 groups: 1. Vehicle for 2 weeks and Vehicle at initiation of a glucose tolerance test (GTT); 2. […] Bromocriptine for 2 weeks and Vehicle at GTT; 4.
Blood was drawn from the jugular vein and blood glucose level was measured every 30 minutes for 2 hours after the glucose load administration.

In the case of `CC(C)C[C@H]1C(=O)N2CCC[C@H]2[C@]2(O)O[C@](NC(=O)[C@@H]3C=C4c5cccc6[nH]c(Br)c(c56)C[C@H]4N(C)C3)(C(C)C)C(=O)N12` [Bromocriptine, bromocriptine mesylate], the “reduction of blood glucose Area Under Curve (AUC) during the GTT over two hours after glucose administration” value in experiment [1] came out at 21%. Moreover, in experiment [2] (bromocriptine for 2 weeks, insulin experiment, P=0.23), the “reduction of glucose AUC over two hours after glucose administration” value is on record as 28%.
As to insulin, the “reduction of glucose AUC over two hours after glucose administration” value in experiment [2] (insulin 240 ng/kg IP immediately prior to glucose administration, P=0.64) was “not significantly reduced”.

The record behind these values is US9895422B2, “Combination of dopamine agonists plus first phase insulin secretagogues for the treatment of metabolic disorders” (VeroScience LLC, priority 2009, dated 2018).
